Where “and” joins values, the source holds several entries; their conditions need not be identical. Identical values can stand only once. Like-named read-outs stand apart in the source and are kept apart here.
Columns and labels:
PGE2 = conditions: cited from earlier work
iNOS [1] = molecular target: T1, iNOS (Mus musculus, UniProt P29477); conditions: cited from earlier work
T1 construct: endogenous in cells; host or cells: RAW 264.7 cells induced with LPS
T1 sequence (P29477 1-1144): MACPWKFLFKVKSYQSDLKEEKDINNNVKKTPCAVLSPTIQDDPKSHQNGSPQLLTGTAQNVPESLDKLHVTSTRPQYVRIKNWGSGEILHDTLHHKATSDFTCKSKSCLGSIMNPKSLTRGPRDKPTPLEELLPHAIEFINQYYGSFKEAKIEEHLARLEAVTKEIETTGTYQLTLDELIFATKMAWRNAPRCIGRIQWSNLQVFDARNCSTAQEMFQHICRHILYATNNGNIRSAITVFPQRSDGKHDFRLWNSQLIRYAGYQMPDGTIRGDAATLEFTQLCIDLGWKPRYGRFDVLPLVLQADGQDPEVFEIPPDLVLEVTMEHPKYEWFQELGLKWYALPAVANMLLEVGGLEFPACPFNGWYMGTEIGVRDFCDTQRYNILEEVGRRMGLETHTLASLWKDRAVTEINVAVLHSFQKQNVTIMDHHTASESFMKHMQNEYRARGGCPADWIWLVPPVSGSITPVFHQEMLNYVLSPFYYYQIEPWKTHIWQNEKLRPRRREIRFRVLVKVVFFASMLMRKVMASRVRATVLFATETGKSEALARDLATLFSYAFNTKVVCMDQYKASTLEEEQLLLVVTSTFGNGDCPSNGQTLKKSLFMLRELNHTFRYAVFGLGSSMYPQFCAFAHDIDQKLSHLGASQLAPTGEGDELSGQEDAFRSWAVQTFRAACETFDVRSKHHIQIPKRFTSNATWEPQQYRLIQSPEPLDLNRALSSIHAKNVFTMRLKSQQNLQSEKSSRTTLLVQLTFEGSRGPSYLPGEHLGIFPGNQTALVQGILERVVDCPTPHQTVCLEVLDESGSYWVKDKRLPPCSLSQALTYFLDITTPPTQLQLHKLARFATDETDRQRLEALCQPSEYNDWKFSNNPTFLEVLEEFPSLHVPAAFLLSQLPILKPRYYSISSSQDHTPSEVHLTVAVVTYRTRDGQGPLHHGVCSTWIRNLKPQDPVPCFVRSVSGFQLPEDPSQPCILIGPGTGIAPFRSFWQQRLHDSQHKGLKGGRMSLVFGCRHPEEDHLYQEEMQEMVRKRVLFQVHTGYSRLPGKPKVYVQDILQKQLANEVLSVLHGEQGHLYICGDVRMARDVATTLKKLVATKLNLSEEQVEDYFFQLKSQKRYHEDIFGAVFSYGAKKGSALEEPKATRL

[2] = system: LPS-induced NO production; conditions: cited from earlier work
COX-2 [3] = system: COX-2; design: method as in PMID 30878890; conditions: cited from earlier work; for IC50: Figure 1
15-LOX = system: 15-LOX; design: method as in PMID 30878890; conditions: Figure 1; cited from earlier work
[4] = system: carrageenan-induced paw edoema; assay: Carrageenan-induced rat paw edoema; type: in vivo, Wistar albino rats; conditions: for % of edoema inhibition (% mean ± SEM), 1 h / % of edoema inhibition (% mean ± SEM), 2 h / % of edoema inhibition (% mean ± SEM), 3 h / % of edoema inhibition (% mean ± SEM), 4 h: rat, 50 mg/kg oral; for % of edoema inhibition (% mean ± SEM), 1 h: 1 h after carrageenan; for % of edoema inhibition (% mean ± SEM), 2 h: 2 h after carrageenan; for % of edoema inhibition (% mean ± SEM), 3 h: 3 h after carrageenan; for % of edoema inhibition (% mean ± SEM), 4 h: 4 h after carrageenan
Experimental: The anti-inflammatory activity of the inspiring active compounds in vitro (4c, 4d, 6a, 6c, 6d and 6e) were further estimated in vivo using the carrageenan-induced paw edoema test. […] The paw thickness was assessed using Vernier calliper after carrageenan injection for 1,2, 3 and 4 h. Wistar albino rats (males weighing 120–140 g, six rats per group) were grouped as follows: Group 1 (Control) rats were received the vehicle. […] The percentage inhibition of edoema thickness was calculated at each time interval in comparison to the control group.

bovine COX-1 = molecular target: T2, bovine COX-1 (Ovis aries, UniProt P05979); assay: In vitro COX-1 inhibition assay (Cayman kit); type: biochemical
T2 construct: purchased Cayman Chemical 560101
T2 sequence (P05979 25-600): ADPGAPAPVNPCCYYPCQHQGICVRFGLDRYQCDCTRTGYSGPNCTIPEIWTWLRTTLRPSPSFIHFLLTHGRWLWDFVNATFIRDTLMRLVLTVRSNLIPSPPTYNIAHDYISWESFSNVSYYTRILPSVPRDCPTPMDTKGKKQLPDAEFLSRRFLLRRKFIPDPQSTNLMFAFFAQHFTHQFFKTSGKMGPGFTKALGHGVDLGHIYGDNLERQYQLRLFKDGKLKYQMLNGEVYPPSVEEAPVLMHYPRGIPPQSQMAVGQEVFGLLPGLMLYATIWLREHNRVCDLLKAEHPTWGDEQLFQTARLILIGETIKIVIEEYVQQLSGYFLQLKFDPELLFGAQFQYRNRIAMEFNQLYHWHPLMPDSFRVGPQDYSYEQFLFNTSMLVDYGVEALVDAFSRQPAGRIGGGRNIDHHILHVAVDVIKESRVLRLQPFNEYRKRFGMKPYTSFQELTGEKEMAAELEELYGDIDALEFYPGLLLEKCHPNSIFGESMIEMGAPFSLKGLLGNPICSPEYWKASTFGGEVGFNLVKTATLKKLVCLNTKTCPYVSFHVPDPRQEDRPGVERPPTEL

iNOS [5] = molecular target: T1, iNOS; assay: iNOS enzymatic activity in LPS-induced RAW 264.7 cells; type: cell-based
Experimental: Then, the NOS assay reaction solution (100 µl/well) was added and incubated for an extra 2 h at 37 °C. The fluorescence with excitation wavelength at 485 nm and emission wavelength at 528 nm was measured using a fluorescent microplate reader.

[6] = system: LPS-induced NO production in RAW 264.7 cells; assay: Griess assay for NO release from LPS-stimulated RAW 264.7 cells; type: cell-based; conditions: Mus musculus, RAW264.7; for IC50: LPS-induced RAW 264.7 cells; for inhibition at 5 µM: compounds at 5 µM, 2 h before LPS, RAW 264.7 cells, read-out: NO Inhibition rates (%) ± SD
Experimental: Equal volumes of Griess reagent and the supernatant, obtained from treated RAW264.7 cells with the compounds 2 h before LPS induction, were mixed for 10 min at room temperature in the dark. The absorbance was measured at 540 nm using ELISA plate reader and the nitrite concentration was calculated from sodium nitrite standard curve. The percentage inhibition (%) is calculated as absorbance at 540 nm of (LPS-compounds)/absorbance at 540 nm of (LPS-control) ×100[47]^,[48].

[7] = system: PGE2 production in RAW 264.7 cells; assay: PGE2 concentration by ELISA in LPS-treated RAW 264.7 cells; type: cell-based; conditions: Mus musculus, RAW264.7; LPS-induced RAW 264.7 cells
Experimental: After seeding and incubation of RAW 264.7 cells for 24 h, then the cells were treated with the compounds (4c, 4d, 6a, 6c, 6d and 6e) at different concentrations and with LPS (1 µg/ml) for another 24 h. The concentration of prostaglandin E2 (PGE2) was measured in the culture media using ELISA kit (R&D Systems, Minneapolis, MN)[50].

COX-2 [8] = assay: In vitro COX-2 inhibition assay (Cayman kit); type: biochemical, bovine; conditions: selectivity index from COX 1 and COX 2 IC50
[9] = MTT cytotoxicity assay on RAW 264.7 cells; type: cell-based; conditions: mouse; for IC50 at 20 h: with LPS; for IC50: without LPS
Experimental: MTT assay was used to assess the cell viability of RAW 264.7 cells cultured in RPMI-1640 complete media. […] Afterwards, 5 µl of MTT solution were added and incubated for further 4 h. Finally, 150 ul of dimethyl sulfoxide (DMSO) were added and the optical density was assessed at 570 nm using an ELISA plate reader.

[10] = four hours after carrageenan injection

| SMILES | % of edoema inhibition (% mean ± SEM), 1 h [4] | % of edoema inhibition (% mean ± SEM), 2 h [4] | % of edoema inhibition (% mean ± SEM), 3 h ([4]; 50 mg/kg) | IC50 (bovine COX-1) | IC50 (iNOS [5]) | IC50 [6] | inhibition at 5 µM [6] | IC50 [7] | SI (COX-2 [8]) | IC50 at 20 h [9] | IC50 [9] | % of edoema inhibition (% mean ± SEM), 4 h [4] | other results |
| --- | --- | --- | --- | --- | --- | --- | --- | --- | --- | --- | --- | --- | --- |
| COc1ccc2c(c1)c(CC(=O)O/N=C(\N)c1ccccc1)c(C)n2C(=O)c1ccc(Cl)cc1 [VI] | – | – | – | – | – | – | – | – | – | – | – | – | IC50 (PGE2): 29 nM; IC50 (iNOS [1]; as printed in the introduction, read-out: iNOS activity IC50): 2310 nM; IC50 ([2]; as printed in the introduction, read-out: LPS-induced NO production IC50): 10.7 µM |
| COc1ccc2cc(C(C)C(=O)O/N=C(\N)c3ccc(OC)c(OC)c3)ccc2c1 (centres unmarked) [V] | – | – | – | – | – | – | – | – | – | – | – | – | IC50 (COX-2 [3]): 6.4 nM; COX-2 inhibitory potency relative to celecoxib (COX-2 [3]): approximately 6.6 folds; IC50 (15-LOX): 2.07 nM |
| COc1ccc(C(=O)/C=C/c2ccc(OCC(=O)O/N=C(\N)c3ccc(OC)c(OC)c3)cc2)cc1 [Compound 6d, N’-(2-{4-[(1E)-3-(4-Methoxyphenyl)-3-oxoprop-2-en-1-yl]phenoxy}acetoxy) -3,4-dimethoxybenzenecarboximidamide] | 13.25 ± 2.04% | 38.43 ± 3.62% | 65.31% and 65.31 ± 2.64% | 17.8 ± 0.93 µM | 1.91 µM | 4.36 µM | 78.2 ± 3.4% | 21.2 nM | 0.17 | > 80 µM | > 80 µM | – | anti-inflammatory activity relative to celecoxib [4, 10]: ~7 fold; anti-inflammatory activity relative to indomethacin [4, 10]: ~1.5 fold; % of edoema inhibition (% mean ± SEM), 4 h ([4]; 50 mg/kg): 78.51% and 78.53% and 78.53 ± 3.28% |
| COc1ccc(C(=O)/C=C/c2ccc(OCC(=O)O/N=C(\N)c3ccccc3)cc2)cc1 [Compound 6a, N’-(2-{4-[(1E)-3-(4-Methoxyphenyl)-3-oxoprop-1-en-1-yl]phenoxy}acetoxy) benzenecarboximidamide] | 14.36 ± 3.11% | 24.33 ± 2.26% | 45.83% and 45.83 ± 2.74% | 20.9 ± 1.09 µM | 6.32 µM | 13.6 µM | 55.5 ± 2.4% | 48.1 nM | 19 | > 80 µM | > 80 µM | 55.74 ± 2.59% | melting point: 172 to 173 °C |
| COc1ccc(/C=C/C(=O)c2ccc(OCC(=O)ON=C(N)c3ccc(OC)c(OC)c3)cc2)cc1 [Compound 4d, N’-(2-{4-[(2E)-3-(4-Methoxyphenyl)prop-2-enoyl]phenoxy}acetoxy)-3,4-dimethoxybenzenecarboximidamide] | 11.65 ± 2.26% | 34.78 ± 3.34% | 69.5% and 69.50 ± 1.49% | 5.82 ± 0.3 µM | 2.22 µM | 5.73 µM | 73.5 ± 2.1% | 24.7 nM | 0.25 | > 80 µM | > 80 µM | 54.21 ± 3.47% | – |
| COc1ccc(C(=O)/C=C/c2ccc(OCC(=O)O/N=C(\N)c3ccc([N+](=O)[O-])cc3)cc2)cc1 [Compound 6e, N’-(2-{4-[(1E)-3-(4-Methoxyphenyl)-3-oxoprop-2-en-1-yl]phenoxy}acetoxy)-4-nitrobenzenecarboximidamide] | 10.23 ± 3.17% | 19.34 ± 2.45% | – | 12.7 ± 0.66 µM | 7.15 µM | 15.8 µM | 57.9 ± 1.3% | 45.1 nM | 7.43 | > 80 µM | > 80 µM | 33.21 ± 3.15% | melting point: 193 to 194 °C |
| COc1ccc2c(c1)c(CC(=O)O/N=C(\N)c1ccc(OC)c(OC)c1)c(C)n2C(=O)c1ccc(Cl)cc1 [VII] | – | – | – | – | – | – | – | – | – | – | – | – | IC50 (PGE2): 34.5 nM; IC50 (iNOS [1]; Figure 1, read-out: iNOS IC50): 3260 nM; IC50 ([2]; Figure 1, read-out: NO IC50): 6.53 µM |
| COc1ccc2cc(C(C)C(=O)O/N=C(\N)c3ccc(Cl)cc3)ccc2c1 (centres unmarked) [IV] | – | – | – | – | – | – | – | – | – | – | – | – | IC50 (COX-2 [3]): 7.15 nM; IC50 (15-LOX): 1.77 nM |

— paper PMC8158245, “Novel chalcone/aryl carboximidamide hybrids as potent anti-inflammatory via inhibition of prostaglandin E2 and inducible NO synthase activities: design, synthesis, molecular docking studies and ADMET prediction” (Journal of Enzyme Inhibition and Medicinal Chemistry, 2021)
